Experimental data taken from patent US20150209373A1, “Progesterone Receptor Modulators for Use in Preventing or Treating Androgen Mediated Diseases” (PregLem SA, priority 2012, published 2015).

Experiments:
[1] = tested on: mice; assay: 26 week oral carcinogenicity study with UPA in mice - organ weights; type: in vivo; conditions: 26 week oral carcinogenicity study in mice
Experimental: During a 104 week rat carcinogenicity assay, we observed seminal vesicles and prostate contraction at dose-levels of 1 (seminal vesicles, only), 3 and 10 mg/kg/day (PGL09-005). Similarly, during 4 and 26 week assays in the mouse, decreases in epididymidis weights were recorded at dose-levels ranging between 15 and 300 mg/kg/day (Tables 1 and 2). Ulipristal Acetate Anti-Androgenic Effect in a 26 Week Oral Carcinogenicity Study in Mice

[2] = tested on: mice; assay: 4 week oral toxicity study with UPA in mice - organ weights; type: in vivo; conditions: 4 week oral toxicity study in mice
Experimental: During a 104 week rat carcinogenicity assay, we observed seminal vesicles and prostate contraction at dose-levels of 1 (seminal vesicles, only), 3 and 10 mg/kg/day (PGL09-005). Similarly, during 4 and 26 week assays in the mouse, decreases in epididymidis weights were recorded at dose-levels ranging between 15 and 300 mg/kg/day (Tables 1 and 2). Ulipristal Acetate Anti-Androgenic Effect in a 4 Week Oral Toxicity Study in Mice

[3] = tested on: rat; assay: 104 week rat carcinogenicity assay (PGL09-005); type: in vivo; conditions: 104 weeks
Experimental: During a 104 week rat carcinogenicity assay, we observed seminal vesicles and prostate contraction at dose-levels of 1 (seminal vesicles, only), 3 and 10 mg/kg/day (PGL09-005). Similarly, during 4 and 26 week assays in the mouse, decreases in epididymidis weights were recorded at dose-levels ranging between 15 and 300 mg/kg/day (Tables 1 and 2).

[4] = tested on: oestrogen receptors; assay: in vitro nuclear receptor selectivity profile - oestrogen receptors; type: binding
[5] = target: T1, glucocorticoid receptor (Homo sapiens, UniProt P04150); assay: in vitro nuclear receptor selectivity profile - glucocorticoid receptor; type: binding
T1 sequence (P04150 1-777): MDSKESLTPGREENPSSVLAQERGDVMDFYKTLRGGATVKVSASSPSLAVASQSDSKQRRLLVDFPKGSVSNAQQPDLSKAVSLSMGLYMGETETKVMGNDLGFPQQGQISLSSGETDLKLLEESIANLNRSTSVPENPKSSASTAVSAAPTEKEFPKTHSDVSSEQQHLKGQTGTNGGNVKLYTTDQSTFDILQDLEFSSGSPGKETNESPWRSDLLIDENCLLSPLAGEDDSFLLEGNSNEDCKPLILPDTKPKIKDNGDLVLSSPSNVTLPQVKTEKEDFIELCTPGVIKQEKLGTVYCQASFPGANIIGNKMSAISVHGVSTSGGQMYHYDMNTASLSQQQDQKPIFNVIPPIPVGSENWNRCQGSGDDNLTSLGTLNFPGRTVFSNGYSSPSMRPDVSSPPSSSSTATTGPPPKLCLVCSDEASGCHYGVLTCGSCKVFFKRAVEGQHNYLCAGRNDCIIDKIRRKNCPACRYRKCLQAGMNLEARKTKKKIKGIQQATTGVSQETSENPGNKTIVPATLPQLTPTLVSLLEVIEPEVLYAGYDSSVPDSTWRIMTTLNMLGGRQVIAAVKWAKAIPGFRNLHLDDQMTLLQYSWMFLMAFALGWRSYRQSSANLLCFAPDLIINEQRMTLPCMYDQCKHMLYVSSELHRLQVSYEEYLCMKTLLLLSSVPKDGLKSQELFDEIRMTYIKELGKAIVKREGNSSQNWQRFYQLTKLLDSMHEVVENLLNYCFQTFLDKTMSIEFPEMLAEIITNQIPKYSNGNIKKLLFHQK

[6] = target: T2, androgen receptor (Homo sapiens, UniProt P10275); assay: in vitro nuclear receptor selectivity profile - androgen receptor; type: binding
T2 sequence (P10275 1-920): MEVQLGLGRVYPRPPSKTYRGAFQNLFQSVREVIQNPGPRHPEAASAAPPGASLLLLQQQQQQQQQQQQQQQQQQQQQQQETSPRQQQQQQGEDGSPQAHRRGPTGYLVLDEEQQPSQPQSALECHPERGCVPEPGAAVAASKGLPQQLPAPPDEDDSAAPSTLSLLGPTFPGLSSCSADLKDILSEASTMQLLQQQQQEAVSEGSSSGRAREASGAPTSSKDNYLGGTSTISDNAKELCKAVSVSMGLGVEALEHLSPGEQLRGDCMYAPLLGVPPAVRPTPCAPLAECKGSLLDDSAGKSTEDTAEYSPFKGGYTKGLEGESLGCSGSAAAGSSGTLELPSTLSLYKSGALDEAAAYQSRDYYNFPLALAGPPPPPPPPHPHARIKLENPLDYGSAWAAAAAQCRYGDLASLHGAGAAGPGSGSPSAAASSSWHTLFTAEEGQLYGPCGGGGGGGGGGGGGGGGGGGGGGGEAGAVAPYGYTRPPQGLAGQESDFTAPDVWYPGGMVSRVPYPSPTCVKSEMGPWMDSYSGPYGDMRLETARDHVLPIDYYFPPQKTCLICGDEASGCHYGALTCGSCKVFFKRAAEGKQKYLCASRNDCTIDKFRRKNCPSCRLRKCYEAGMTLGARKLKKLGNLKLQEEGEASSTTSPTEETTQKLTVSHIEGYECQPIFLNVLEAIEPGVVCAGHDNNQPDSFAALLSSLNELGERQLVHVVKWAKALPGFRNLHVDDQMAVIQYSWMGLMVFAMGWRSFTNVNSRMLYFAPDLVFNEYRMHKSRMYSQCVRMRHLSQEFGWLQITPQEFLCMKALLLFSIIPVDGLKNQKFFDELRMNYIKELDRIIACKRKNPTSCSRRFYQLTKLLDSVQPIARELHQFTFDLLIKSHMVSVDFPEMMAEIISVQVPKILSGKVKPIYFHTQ

[7] = target: T3, progesterone receptor (Homo sapiens, UniProt P06401); assay: in vitro nuclear receptor selectivity profile - progesterone receptor; type: binding
T3 sequence (P06401 1-933): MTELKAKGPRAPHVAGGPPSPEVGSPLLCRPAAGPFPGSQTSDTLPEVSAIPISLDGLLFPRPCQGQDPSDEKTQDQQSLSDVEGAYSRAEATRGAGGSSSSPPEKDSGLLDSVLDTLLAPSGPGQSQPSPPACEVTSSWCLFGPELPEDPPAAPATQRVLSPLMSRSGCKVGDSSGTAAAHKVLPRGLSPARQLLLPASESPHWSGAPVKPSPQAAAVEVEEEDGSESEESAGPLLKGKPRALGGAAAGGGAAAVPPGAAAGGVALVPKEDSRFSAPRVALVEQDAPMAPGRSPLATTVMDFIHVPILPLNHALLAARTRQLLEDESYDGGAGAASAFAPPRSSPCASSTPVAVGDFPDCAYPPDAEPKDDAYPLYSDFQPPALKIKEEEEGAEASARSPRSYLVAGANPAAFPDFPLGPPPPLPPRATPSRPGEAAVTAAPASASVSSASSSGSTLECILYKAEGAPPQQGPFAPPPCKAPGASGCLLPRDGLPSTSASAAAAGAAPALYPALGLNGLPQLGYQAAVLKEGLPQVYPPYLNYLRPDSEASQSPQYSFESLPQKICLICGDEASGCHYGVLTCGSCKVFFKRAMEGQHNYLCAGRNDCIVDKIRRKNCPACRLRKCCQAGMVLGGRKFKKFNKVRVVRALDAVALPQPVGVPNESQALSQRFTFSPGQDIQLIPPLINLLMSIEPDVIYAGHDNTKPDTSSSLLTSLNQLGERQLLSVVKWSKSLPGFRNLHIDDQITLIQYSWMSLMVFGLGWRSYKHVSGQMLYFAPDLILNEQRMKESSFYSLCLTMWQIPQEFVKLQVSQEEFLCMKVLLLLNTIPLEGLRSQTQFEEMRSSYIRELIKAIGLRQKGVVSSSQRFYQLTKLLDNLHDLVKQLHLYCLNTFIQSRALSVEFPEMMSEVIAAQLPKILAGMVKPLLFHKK

[8] = in vivo activity profile

CC(=O)O[C@]1(C(C)=O)CC[C@H]2[C@@H]3CCC4=CC(=O)CCC4=C3[C@@H](c3ccc(N(C)C)cc3)C[C@@]21C [UPA, Ulipristal acetate]
interpretation of decrease in organ weight [1]: suggestive of anti-androgenic like effects
interpretation of decrease in organ weight [2]: suggestive of anti-androgenic like effects
seminal vesicles finding ([3]; dose-levels of 1, 3 and 10 mg/kg/day): contraction
prostate finding ([3]; dose-levels of 3 and 10 mg/kg/day (not at 1 mg/kg/day)): contraction
affinity for the oestrogen receptors [4]: no affinity
affinity for the glucocorticoid receptor [5]: high affinity
affinity for the androgen receptor [6]: much lower affinity
affinity for the progesterone receptor [7]: high affinity
in vivo anti-androgenic activity [8]: anti-androgenic effects
in vivo anti-glucocorticoid activity [8]: no significant anti-glucocorticoid effects
